Data on nine compounds can be found in patent publication US8470872B2, “Compounds with activity at estrogen receptors” (Acadia Pharmaceuticals Inc., priority 2007, dated 2013).

The target in assay [1] is T1, ERα (Homo sapiens, UniProt P03372).
T1 sequence (P03372 1-595): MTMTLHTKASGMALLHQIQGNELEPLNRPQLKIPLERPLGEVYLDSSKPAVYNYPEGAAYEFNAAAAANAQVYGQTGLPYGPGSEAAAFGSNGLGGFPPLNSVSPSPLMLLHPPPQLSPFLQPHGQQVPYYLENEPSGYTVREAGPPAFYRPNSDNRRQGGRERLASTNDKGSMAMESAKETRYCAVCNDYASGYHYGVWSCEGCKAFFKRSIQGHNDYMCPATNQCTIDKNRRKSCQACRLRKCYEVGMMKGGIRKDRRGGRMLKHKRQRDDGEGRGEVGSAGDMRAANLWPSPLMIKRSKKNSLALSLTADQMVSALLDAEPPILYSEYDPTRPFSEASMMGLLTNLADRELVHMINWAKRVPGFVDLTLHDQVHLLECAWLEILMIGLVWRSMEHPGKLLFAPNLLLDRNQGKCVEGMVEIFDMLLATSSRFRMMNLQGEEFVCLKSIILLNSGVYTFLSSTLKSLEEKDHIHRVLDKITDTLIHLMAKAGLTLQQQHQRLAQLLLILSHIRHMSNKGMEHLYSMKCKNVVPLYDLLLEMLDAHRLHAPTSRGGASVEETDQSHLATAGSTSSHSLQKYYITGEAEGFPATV
Kind of assay: Luciferase reporter gene assay (3*ERE) in HEK293 cells, ERα. The class given is cell-based. The conditions noted are these: 48 hours with test compounds; for EC50: read-out: Luciferase ERα pEC50 (converted). The protocol:
(§1) HEK293 cells were grown to 70% confluency in DMEM containing 10% calf serum (Hyclone) prior to transfection. On the day of transfection (day 1), expression vectors for ERa or ERb were cotransfected along a construct containing a synthetic 3*ERE (estrogen response element) upstream of the luciferase gene (Panomics), using Polyfect (Qiagen) per manufacturer's recommendations. Sixteen hours post-transfection, cells were incubated in serum free DMEM. On day 3, cells were incubated with the test compounds for 48 hours in serum free DMEM. Cells extracts were then obtained by lyzing and the Luciferase activity measured. All of these steps were performed using a commercially available kit (Promega).
On the technique in general: In a reporter assay the amount or activity of a reporter protein is the signal.

In assay [2] the target is T2, ERβ (Homo sapiens, UniProt Q92731). The assay can be described thus: Luciferase reporter gene assay (3*ERE) in HEK293 cells, ERβ. Particulars: 48 hours with test compounds; for EC50: read-out: Luciferase ERβ pEC50 (converted). The class given is cell-based. The protocol:
as §1

The target of assay [3] is T1, ERα. The assay can be described thus: R-SAT (Receptor Selection and Amplification Technology) functional assay, ERα. The class given is cell-based. On the set-up: expressed in transfected cells; host or cells: NIH-3T3 fibroblasts, transient transfection. The conditions noted are these: NIH-3T3 fibroblasts transfected with receptor, na = not active; for EC50: read-out: R-SAT ERα pEC50 (converted). From the text:
(§2) R-SAT® (Receptor Selection and Amplification Technology) is a cell-based functional assay that allows one to monitor receptor-dependent proliferative responses and has been described elsewhere. The technology has been validated for a number of receptors including GPCRs (Brauner-Osborne and Brann 1996), RTKs (Burstein et al. 1998), cytokine receptors (Piu et al. 2002) and nuclear receptors (Piu et al. 2005; Piu et al. 2006). This process is achieved by partial cellular transformation via loss of contact inhibition and growth factor dependency. Monitoring is achieved by transfecting the cells with a β-galactosidase reporter gene vector whose expression is under a constitutively active promoter. Briefly, NIH-3T3 fibroblasts were plated overnight in 96-wells plates in DMEM 10% calf serum (Hyclone) and grown to 60-70% confluency prior to transfection. Transient transfections were performed using Polyfect (Qiagen) according to manufacturer's instructions. Typically a transfection mix would consist of the receptor and the β-galactosidase expression vectors. Sixteen hours post-transfection, cells were incubated with different doses of ligand in DMEM containing 30% Ultraculture (Hyclone) and 0.4% calf serum (Hyclone) to generate a dose response curve. After 5 days, plates were developed by adding onto the washed cells a solution containing the β-galactosidase substrate o-nitrophenyl-D-galacto pyranoside ONPG (in phosphate-buffered saline with 5% Nonidet P-40 detergent) as described (Piu et al. 2002). Plates were read using a microplate reader at 420 nm. Data from R-SAT® assays were fit to the equation: r=A+B(x/(x+c)), where A=minimum response, B=maximum response minus minimum response, c=EC50, r=response, and x=concentration of ligand. Curves were generated using the curve fitting softwares Excel Fit and GraphPad Prism (San Diego, Calif.).

Assay [4] deals with T2, ERβ. Kind of assay: R-SAT (Receptor Selection and Amplification Technology) functional assay, ERβ. The class given is cell-based. The conditions noted are these: NIH-3T3 fibroblasts transfected with receptor, na = not active; for EC50: read-out: R-SAT ERβ pEC50 (converted). On the set-up: expressed in transfected cells; host or cells: NIH-3T3 fibroblasts, transient transfection.
Source text: as §2

Assay [5] has as its target T1, ERα. The assay can be described thus: Competitive 3H-estradiol binding assay, ERα. The conditions noted are these: cytosolic extracts of transfected HEK293T cells, 1 nM 3H-estradiol; read-out: Binding ERα pKi (converted). The protocol: (§3) HEK293T cells were transiently transfected for 48 hours with expression vectors encoding ERα or ERβ, before being serum starved for 4-6 hours. Cells were then harvested by scraping in ice-cold PBS and subsequently lysed using a cold buffer containing 10 mM Tris pH 7.4, 1 mM EDTA, 1 mM DTT before being subjected to polytron twice for 10 seconds. Cytosolic extracts were isolated by centrifugation at 15000 g for 30 minutes at 4° C. Competitive binding of the test compounds or the estradiol control was performed on 20 uL extract by overnight incubation at 4° C. in a total volume of 100 μL containing 1 nM ^3H-estradiol (Perkin Elmer, Boston, Mass.). The bound fraction was separated from the unbound one by the addition of 100 μL of Dextran coated charcoal, incubated for 10 minutes and subsequent centrifugation at 1000 rpm for 10 minutes. Samples (100 μL per sample) were then analyzed by liquid scintillation. Data was then analyzed using the curve fitting software GraphPad Prism.

The target of assay [6] is T2, ERβ. Kind of assay: Competitive 3H-estradiol binding assay, ERβ. Particulars: cytosolic extracts of transfected HEK293T cells, 1 nM 3H-estradiol; read-out: Binding ERβ pKi (converted). The protocol: as §3

T2 sequence (Q92731 whole entry, species assumed): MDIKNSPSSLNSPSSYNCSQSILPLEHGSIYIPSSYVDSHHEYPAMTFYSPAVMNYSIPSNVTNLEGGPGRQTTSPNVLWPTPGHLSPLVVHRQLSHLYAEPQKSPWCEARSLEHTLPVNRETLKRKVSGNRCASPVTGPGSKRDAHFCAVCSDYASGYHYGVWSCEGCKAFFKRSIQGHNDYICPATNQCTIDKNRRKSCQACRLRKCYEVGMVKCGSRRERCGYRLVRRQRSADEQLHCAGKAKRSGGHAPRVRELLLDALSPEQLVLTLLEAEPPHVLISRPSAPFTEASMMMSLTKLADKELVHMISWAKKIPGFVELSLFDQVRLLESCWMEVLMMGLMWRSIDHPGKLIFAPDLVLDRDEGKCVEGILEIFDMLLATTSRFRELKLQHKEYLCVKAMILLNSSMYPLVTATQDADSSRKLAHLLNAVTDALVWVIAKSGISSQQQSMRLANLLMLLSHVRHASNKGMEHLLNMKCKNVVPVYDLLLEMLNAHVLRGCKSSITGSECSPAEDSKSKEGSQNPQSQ

Take `Oc1ccc(C23CCCCCC2Oc2ccc(F)cc23)cc1` (centres unmarked) [Compound 448, 4-(2-Fluoro-6,7,8,9,10,10a-hexahydro-5aH-benzo[b]cyclohepta[d]-furan-10a-yl)phenol]: on ERα [1], the “Luciferase ERα % Eff” value is listed as 36% and the EC50 was 316 nM. Besides, at ERβ [2], the “Luciferase ERβ % Eff” value worked out at 114% and the EC50 was 0.1 nM. Also, on ERα [3], the “R-SAT ERα % Eff” value was found to be 92% and the EC50 is 398 nM. Also, on ERβ [4], the “R-SAT ERβ % Eff” value came out at 83% and the EC50 is 1.26 nM.
As to `Oc1ccc(C23CCCCC2Oc2ccccc23)cc1` (centres unmarked) [Compound 961, 4-(5a,6,7,8,9,9a-Hexahydrodibenzo[b,d]furan-9a-yl)phenol], on ERα [1], the “Luciferase ERα % Eff” value turned out to be 54% and the EC50 was 794 nM. At ERβ [2], the “Luciferase ERβ % Eff” value was 86% and the EC50 was 7.94 nM. In addition, at ERα [3], the “R-SAT ERα % Eff” value came to 95% and the EC50 is 1000 nM. In addition, at ERβ [4], the “R-SAT ERβ % Eff” value was 100% and the EC50 is 10 nM.
Take `Oc1ccc(C23CCCCCC2Oc2c(F)cccc23)cc1` (centres unmarked) [Compound 447, 4-(4-Fluoro-6,7,8,9,10,10a-hexahydro-5aH-benzo[b]cyclohepta-[d]furan-10a-yl)phenol]: on ERα [1], the “Luciferase ERα % Eff” value amounted to 25% and the EC50 is 398 nM. Moreover, on ERβ [2], the “Luciferase ERβ % Eff” value turned out to be 122% and the EC50 is 0.631 nM. In addition, on ERα [3], the “R-SAT ERα % Eff” value was determined as 97% and the EC50 was 398 nM. Further, on ERβ [4], the “R-SAT ERβ % Eff” value stood at 85% and the EC50 was 5.01 nM.
Take `Oc1ccc(C23CCCCC=C2Oc2cccc(F)c23)cc1` (centres unmarked) [Compound 349, (E)-4-(1-Fluoro-8,9,10,10a-tetrahydro-7H-benzo[b]cyclohepta-[d]furan-10a-yl)phenol]: on ERα [1], the “Luciferase ERα % Eff” value was found to be 6.4%. Moreover, the EC50 on ERβ [2] is 316 nM. Further, the “R-SAT ERα % Eff” value at ERα [3] came out at 16%. Also, the “R-SAT ERβ % Eff” value at ERβ [4] was 24%.
Consider `Oc1ccc(C23CCCCCC2Oc2cccc(F)c23)cc1` (single isomer, unassigned) [Compound 231, 4-(1-Fluoro-6,7,8,9,10,10a-hexahydro-5aH-benzo[b]cyclohepta[d]-furan-10a-yl)phenol], for which, at ERα [1], the “Luciferase ERα % Eff” value worked out at 43% and the EC50 was 200 nM. On ERβ [2], the “Luciferase ERβ % Eff” value stood at 114% and the EC50 was 0.158 nM. At ERα [3], the “R-SAT ERα % Eff” value turned out to be 86% and the EC50 was 158 nM. For the same compound, at ERβ [4], the “R-SAT ERβ % Eff” value came out at 91% and the EC50 was 1 nM.
As to `Oc1ccc(C23CCCCCC2Oc2cccc(F)c23)cc1` (single isomer, unassigned) [Compound 232, 4-(1-Fluoro-6,7,8,9,10,10a-hexahydro-5aH-benzo[b]cyclohepta[d]-furan-10a-yl)phenol], on ERα [1], the “Luciferase ERα % Eff” value was found to be 27% and the EC50 is 1260 nM. For the same compound, at ERβ [2], the “Luciferase ERβ % Eff” value is reported as 80% and the EC50 is 7.94 nM. Further, at ERα [3], the “R-SAT ERα % Eff” value is 37% and the EC50 is 794 nM. Besides, at ERβ [4], the “R-SAT ERβ % Eff” value was found to be 76% and the EC50 is 10 nM.
Turning to `Oc1ccc(C23CCCCCC2Oc2ccccc23)cc1` (centres unmarked) [Compound 807, 4-(6,7,8,9,10,10a-Hexahydro-5aH-benzo[b]cyclohepta[d]furan-10a-yl)phenol], at ERα [1], the “Luciferase ERα % Eff” value is on record as 51%. The EC50 is 316 nM on ERα [1], 0.316 nM at ERβ [2], 398 nM on ERα [3] and 1.26 nM at ERβ [4]. Besides, the “Luciferase ERβ % Eff” value on ERβ [2] is 81%. In addition, the figures for the Ki on ERα [5] and at ERβ [6] were 79.4 nM and 5.01 nM, respectively. Further, the “R-SAT ERα % Eff” value at ERα [3] is recorded as 93%. For the same compound, at ERβ [4], the “R-SAT ERβ % Eff” value was found to be 99%.
For the compound `Oc1ccc(C23CCCCC2Oc2cccc(F)c23)cc1` (centres unmarked) [Compound 130, 4-(1-Fluoro-5a,6,7,8,9,9a-hexahydrodibenzo[b,d]furan-9a-yl)phenol], on ERα [1], the “Luciferase ERα % Eff” value was 51% and the EC50 is 631 nM. Also, on ERβ [2], the “Luciferase ERβ % Eff” value is on record as 129% and the EC50 is 2.51 nM. Also, the Ki at ERα [5] was 126 nM. Besides, on ERβ [6], the Ki was 25.1 nM. Further, on ERα [3], the “R-SAT ERα % Eff” value was 70% and the EC50 was 631 nM. Moreover, at ERβ [4], the “R-SAT ERβ % Eff” value was found to be 97% and the EC50 was 6.31 nM.
For the compound `Oc1ccc(C23CCCCCC2Oc2cccc(F)c23)cc1` (single isomer, unassigned) [Compound 982, 4-(1-Fluoro-6,7,8,9,10,10a-hexahydro-5aH-benzo[b]cyclohepta[d]-furan-10a-yl)phenol], at ERα [3], the “R-SAT ERα % Eff” value came to 108% and the EC50 was 15.8 nM. For the same compound, on ERβ [4], the “R-SAT ERβ % Eff” value is listed as 87% and the EC50 is 0.0501 nM.
